The values that follow come from patent US20050209271A1, “Form of renzapride hydrochloride hydrate and uses thereof” (priority 2003, published 2005).

SMILES strings stand for the structures.

Holding throughout (format): physicochemical
A short description of data set [1]: Dynamic vapour sorption (DVS), adsorption/desorption cycles between 0 and 90% RH. An excerpt: Each sample was placed into a sample pan and loaded into the DVS system. An initial weight reading was taken. The sample was then exposed to an atmosphere with a relative humidity (RH) of 0% to dry the sample and a dry weight reading taken. The sample was exposed to an adsorption/desorption cycle between 0 and 90% RH in 10% RH intervals. The change in weight data was fitted to an exponential expression that was used to automatically determine the end point of each stage, which then triggers the next increase/decrease in relative humidity. For the DVS traces, the stepped lines represent the relative humidity (RH) level in the Chamber. The curved line represents the weight change in the sample. The RH was controlled automatically and changes once the rate of change in weight of the sample is small.

The nature of data set [2]: Storage stability at 25° C./60% relative humidity. The conditions noted are these: 25° C./60% RH. As to the method:
Samples of Form II renzapride hydrochloride hydrate were placed in storage under conditions of 25° C./60% relative humidity.

Data set [3] can be described thus: Particle size distribution. The settings on record: 5 kg batch. As to the method:
The Particle Size Distribution (PDS) of renzapride is measured according to the method detailed below. [table] • Vibration feed rate: 40% • Air pressure: 3.5 Bar Single measurement of each batch performed in triplicate.

The nature of data set [4]: Intrinsic dissolution rate (IDR) of compressed discs in a static dissolution system. As to the method:
The samples were prepared as discs. Each disc was prepared by compressing the sample for 5 minutes at 2 tons of pressure. Each disc was transferred to a static dissolution system, whereby one surface of the disc is exposed to the dissolution medium. Six discs were prepared from each batch of material for duplicate intrinsic dissolution rate (IDR) determinations at pHs 2.2, 4.0 and 7.0. Dissolution samples (0.8 ml) were withdrawn at 5 minute intervals up to 60 minutes and samples were analysed. The amount of drug released (mg) is divided by the surface area of the disc (0.5 cm^2) to obtain an amount per unit area (mg cm^−2). The average of the duplicate determinations is plotted as a function of time (minutes). The IDR (mg cm^−2 minutes^−1) is given by the gradient (determined by linear regression) over the linear range of the release profile. When the dissolution into solution is deemed independent of pH, a pH independent IDR is calculated. The pH independent IDR is calculated by averaging the data for each time point at all of the pHs studied and calculating the linear regression on at least the first 5 data points. All IDR values are reported with the error encompassing the upper and lower 95% confidence limits of the linear regression. Linear regression analysis of the IDR data used all of the data points, as the release profiles are linear.

`COc1cc(N)c(Cl)cc1C(=O)NC1CCN2CCCC1C2.Cl` (centres unmarked) [Form II, renzapride hydrochloride hydrate]: in data set [1] (chamber at 90% RH), the “moisture taken up at 90% RH (DVS)” value was ~9.5 % (w/w). Besides, the “uptake in moisture at 10% RH (DVS)” value in data set [1] (exposure to 10% RH, initial uptake) is listed as “ca. 9 % (w/w)”. Further, in data set [2] (t = 0 months), the Description entry is “White” and the “Water content (by Karl Fisher)” value is recorded as 8.9%(w/w). Also, in data set [2] (t = 6 months), the Description result is recorded as “White” and the “Water content (by Karl Fisher)” value is reported as 8.6%(w/w). For the same molecule, in data set [2] (t = 12 months), the Description result was “White” and the “Water content (by Karl Fisher)” value was 8.8%(w/w). For the same molecule, in data set [2] (t = 18 months), the Description result was “White” and the “Water content (by Karl Fisher)” value is 8.8%(w/w). Moreover, in data set [2] (t = 24 months), the Description entry was “White” and the “Water content (by Karl Fisher)” value is 8.8%(w/w). For the same molecule, in data set [3], the “Span = (d(0.9) − d(0.1))/d(0.5)” value is recorded as 2.1, the “d (0.1)” value is recorded as 11.5 μm, the “d(0.5)” value is 47.1 μm and the “d(0.9)” value came to 109.0 μm. Besides, the “IDR independent (pH independent IDR)” value in data set [4] (data averaged over all pHs studied, error = 95% confidence limits) is 5.7 ± 0.3 mg/min/cm^2. In addition, the “IDR pH 2.2” value in data set [4] (pH 2.2, error = 95% confidence limits of linear regression) was determined as 5.5 ± 0.2 mg/min/cm^2. Besides, the “IDR pH 4.0” value in data set [4] (pH 4.0, error = 95% confidence limits of linear regression) is 5.7 ± 0.2 mg/min/cm^2. In data set [4] (pH 7.0, error = 95% confidence limits of linear regression), the “IDR pH 7.0” value is 5.9 ± 0.3 mg/min/cm^2.
